This note sets out measurements from article PMC10132233 (Journal of Enzyme Inhibition and Medicinal Chemistry, 2023).

In series [1] the test system is PC3 prostate carcinoma cell line. Kind of series: MTT cytotoxicity assay, PC3. The note with it: Homo sapiens, 24 h. The class given is cell-based. The text has this: (§1) Accordingly, we aimed to investigate the cytotoxic potential of this new series against prostate carcinoma cell lines. […] The potent nanomolar cell-based activity of this series of compounds over the tested prostate carcinoma cell line could be attributed to other possible targets in addition to EGFR and HER2 receptors. The presence of the 2-nitroimidazole moiety in the chemical structure of compounds 9a–h could develop possible covalent bonds between the nitroimidazole moiety and some cellular proteins.
(§2) Prostate cancer cell lines (PC3 and 22RV1) of American Type Culture Collection (ATCC) were obtained from Korean Cell Center (KCL). PC3 and 22RV1 cell lines were cultured in Roswell Park Memorial Institute Medium (RPMI) 1640 and Dulbecco’s modified Eagle’s medium (DMEM) (GenDepot, Barker, TX) supplemented with 1% penicillin–streptomycin and 10% foetal bovine serum (FBS). The cells were maintained at 37 °C in a 5% CO2 with a 95% humid atmosphere.
(§3) To further analyse the intracellular cytotoxicity effect of the as-synthesised compounds, MTT assay was performed. Moreover, the experiments were divided into subcategories. In each group, cancer cells were first seeded in 96-well plates (4 × 10^4 cells per well) and then incubated for 24 h at 37 °C in a 5% CO2-containing atmosphere. Subsequently, the medium from the culture plate was removed, and 100 µL of RPMI media containing different concentrations of compounds (0.01, 0.005, 0.0025, 0.00125, and 0.000625 µM) were then added into the cell lines in each well and incubated for 24 h in a 5% CO2 humidified incubator at 37 °C. Afterwards, MTT solution (150 μL, 1 mg/mL) was added to each well, replacing the media-containing compounds. After 4 h of incubation, the MTT reagent was removed, and 200 μL of DMSO was then added to dissolve the formazan crystals, and colour intensity was measured at a wavelength of 540 nm using a BioTek Synergy H1 instrument (BioTek, Winooski, VT). IC50 was calculated according to the equation of Boltzmann sigmoidal concentration–response curve using Graph Pad Prism 5 (La Jolla, CA).

In series [2] the test system is 22RV1 prostate carcinoma cell line. Kind of series: MTT cytotoxicity assay, 22RV1. Format: cell-based. The note with it: Homo sapiens, 24 h.
Text: as §1, §2, §3
(Tetrazolium assays rely on reduction of a dye to a coloured formazan, in cell work by metabolically active cells.)

The target of a further series is EGFR (Homo sapiens, UniProt P00533). The series can be described thus: HotSpot kinase assay over EGFR (Reaction Biology). The conditions noted are these: read-out: % kinase inhibition EGFR.
The target in the next series is HER2 (Homo sapiens, UniProt P04626). Kind of series: HotSpot kinase assay over HER2 (Reaction Biology). The conditions noted are these: read-out: % kinase inhibition HER2.
Chain of HER2 (P04626 23-1255): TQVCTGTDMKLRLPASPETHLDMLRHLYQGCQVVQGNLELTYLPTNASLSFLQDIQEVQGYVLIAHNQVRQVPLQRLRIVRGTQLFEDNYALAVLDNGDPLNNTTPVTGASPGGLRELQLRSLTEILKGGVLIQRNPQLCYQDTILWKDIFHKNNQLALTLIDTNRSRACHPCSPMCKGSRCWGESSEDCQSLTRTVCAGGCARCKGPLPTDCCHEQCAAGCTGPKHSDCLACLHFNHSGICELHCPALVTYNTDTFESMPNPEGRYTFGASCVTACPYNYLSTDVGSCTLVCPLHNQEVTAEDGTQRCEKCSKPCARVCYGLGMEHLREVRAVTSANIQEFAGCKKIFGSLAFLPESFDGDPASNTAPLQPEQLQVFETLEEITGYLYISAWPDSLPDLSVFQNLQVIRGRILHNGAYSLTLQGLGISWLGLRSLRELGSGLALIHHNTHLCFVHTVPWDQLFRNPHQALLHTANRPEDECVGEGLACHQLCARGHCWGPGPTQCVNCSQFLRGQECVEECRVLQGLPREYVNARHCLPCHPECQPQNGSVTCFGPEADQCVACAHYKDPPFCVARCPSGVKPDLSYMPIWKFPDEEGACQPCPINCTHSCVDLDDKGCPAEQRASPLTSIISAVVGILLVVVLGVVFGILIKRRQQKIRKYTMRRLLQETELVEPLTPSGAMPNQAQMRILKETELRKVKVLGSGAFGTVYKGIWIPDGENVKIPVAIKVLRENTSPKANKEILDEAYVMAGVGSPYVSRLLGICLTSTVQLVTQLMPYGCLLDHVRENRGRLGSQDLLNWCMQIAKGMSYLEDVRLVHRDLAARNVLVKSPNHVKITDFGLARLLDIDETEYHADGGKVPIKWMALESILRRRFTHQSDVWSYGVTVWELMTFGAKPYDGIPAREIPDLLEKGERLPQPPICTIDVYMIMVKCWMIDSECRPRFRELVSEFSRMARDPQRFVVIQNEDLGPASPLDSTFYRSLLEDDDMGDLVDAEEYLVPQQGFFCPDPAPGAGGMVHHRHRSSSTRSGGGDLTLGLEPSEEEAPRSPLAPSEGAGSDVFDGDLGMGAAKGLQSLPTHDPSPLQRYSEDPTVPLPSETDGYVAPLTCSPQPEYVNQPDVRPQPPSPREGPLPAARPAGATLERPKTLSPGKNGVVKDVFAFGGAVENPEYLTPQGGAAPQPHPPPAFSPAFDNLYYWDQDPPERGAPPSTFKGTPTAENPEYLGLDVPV

Chain of EGFR (P00533 25-1210): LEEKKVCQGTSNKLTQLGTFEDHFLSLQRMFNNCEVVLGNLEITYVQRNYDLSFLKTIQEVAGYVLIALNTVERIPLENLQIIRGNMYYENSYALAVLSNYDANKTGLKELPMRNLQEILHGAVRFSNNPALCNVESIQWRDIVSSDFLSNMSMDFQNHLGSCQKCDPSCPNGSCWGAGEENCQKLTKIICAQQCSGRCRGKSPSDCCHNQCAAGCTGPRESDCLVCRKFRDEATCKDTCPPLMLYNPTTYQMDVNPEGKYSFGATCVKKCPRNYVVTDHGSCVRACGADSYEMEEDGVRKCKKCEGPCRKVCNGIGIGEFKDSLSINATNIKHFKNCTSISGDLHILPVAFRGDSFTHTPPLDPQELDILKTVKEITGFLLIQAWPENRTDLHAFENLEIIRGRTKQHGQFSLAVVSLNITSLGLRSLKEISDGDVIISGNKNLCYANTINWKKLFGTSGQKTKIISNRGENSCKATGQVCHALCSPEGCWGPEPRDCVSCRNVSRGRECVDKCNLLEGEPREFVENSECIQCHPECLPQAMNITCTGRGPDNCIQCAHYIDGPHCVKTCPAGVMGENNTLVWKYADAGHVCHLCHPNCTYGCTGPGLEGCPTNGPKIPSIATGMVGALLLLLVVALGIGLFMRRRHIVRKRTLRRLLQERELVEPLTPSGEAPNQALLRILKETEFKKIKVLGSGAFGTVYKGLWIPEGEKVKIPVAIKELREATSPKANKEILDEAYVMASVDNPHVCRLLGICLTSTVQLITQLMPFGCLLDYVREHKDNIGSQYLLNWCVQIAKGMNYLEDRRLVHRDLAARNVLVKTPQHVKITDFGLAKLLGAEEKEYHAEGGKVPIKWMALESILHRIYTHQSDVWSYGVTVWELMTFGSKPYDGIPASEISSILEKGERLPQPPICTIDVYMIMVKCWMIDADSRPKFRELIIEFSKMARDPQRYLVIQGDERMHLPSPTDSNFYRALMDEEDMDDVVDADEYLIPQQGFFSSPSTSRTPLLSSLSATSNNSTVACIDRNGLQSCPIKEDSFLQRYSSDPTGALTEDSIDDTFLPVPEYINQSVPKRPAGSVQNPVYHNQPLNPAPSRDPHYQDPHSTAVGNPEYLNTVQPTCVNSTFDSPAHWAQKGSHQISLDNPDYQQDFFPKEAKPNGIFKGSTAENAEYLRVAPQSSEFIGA

`COc1cc2ncnc(Nc3ccc(Oc4ccc(Cl)c(Cl)c4)c(Cl)c3)c2cc1OCCCn1ccnc1[N+](=O)[O-]` [Compound 9a, N-(3-Chloro-4-(3,4-dichlorophenoxy)phenyl)-7-methoxy-6-(3-(2-nitro-1H-imidazol-1-yl)propoxy)quinazolin-4-amine] gave a melting point of 237 to 238 °C. For the same molecule, the IC50 in series [1] was 6.1 nM. In series [2], the IC50 came to 2.3 nM. For the same molecule, at EGFR, the inhibition at 10 µM came to 89%. Moreover, on HER2, the inhibition at 10 µM was 69.8%.

In the case of `COc1cc2ncnc(Nc3ccc(Oc4ccc(Cl)c(Cl)c4)c(Cl)c3)c2cc1OCCCCn1ccnc1[N+](=O)[O-]` [Compound 9b, N-(3-Chloro-4-(3,4-dichlorophenoxy)phenyl)-7-methoxy-6-(4-(2-nitro-1H-imidazol-1-yl)butoxy)quinazolin-4-amine], the melting point was in the range of 101 to 102 °C. Further, in series [1], the IC50 was found to be 3.1 nM. Also, the IC50 in series [2] was determined as 2 nM. The inhibition at 10 µM at EGFR came to 94.2%. The inhibition at 10 µM at HER2 stood at 80.3%.

As for `COc1cc2ncnc(Nc3ccc(Oc4ccc(Cl)c(Cl)c4)c(Cl)c3)c2cc1OCCCCCn1ccnc1[N+](=O)[O-]` [Compound 9c, N-(3-Chloro-4-(3,4-dichlorophenoxy)phenyl)-7-methoxy-6-((5-(2-nitro-1H-imidazol-1-yl)pentyl)oxy)quinazolin-4-amine], the melting point lay in the range of 94 to 95 °C. Besides, in series [1], the IC50 worked out at 3.3 nM. Also, the IC50 in series [2] stood at 1.9 nM. At EGFR, the inhibition at 10 µM turned out to be 90%. The inhibition at 10 µM at HER2 was determined as 78.6%.

`COc1cc2ncnc(Nc3ccc(Oc4ccc(Cl)c(Cl)c4)c(Cl)c3)c2cc1OCCCCCCn1ccnc1[N+](=O)[O-]` [Compound 9d, N-(3-Chloro-4-(3,4-dichlorophenoxy)phenyl)-7-methoxy-6-((6-(2-nitro-1H-imidazol-1-yl)hexyl)oxy)quinazolin-4-amine]: the melting point lay in the range of 90 to 91 °C. Also, the IC50 in series [1] was 2.1 nM. Further, in series [2], the IC50 was 2.8 nM. In addition, the inhibition at 10 µM at EGFR was determined as 88.9%. The inhibition at 10 µM on HER2 came out at 72.1%.

With `COc1cc2ncnc(Nc3ccc(Oc4cccc(C(F)(F)F)c4)c(Cl)c3)c2cc1OCCCn1ccnc1[N+](=O)[O-]` [Compound 9e, N-(3-Chloro-4-(3-(trifluoromethyl)phenoxy)phenyl)-7-methoxy-6-(3-(2-nitro-1H-imidazol-1-yl)propoxy)quinazolin-4-amine], the melting point was in the range of 232 to 233 °C. The IC50 in series [1] was determined as 7.3 nM. Further, in series [2], the IC50 worked out at 0.8 nM. In addition, the inhibition at 10 µM on EGFR was 98.9%. In addition, at HER2, the inhibition at 10 µM stood at 81.7%.

`COc1cc2ncnc(Nc3ccc(Oc4cccc(C(F)(F)F)c4)c(Cl)c3)c2cc1OCCCCCn1ccnc1[N+](=O)[O-]` [Compound 9g, N-(3-Chloro-4-(3-(trifluoromethyl)phenoxy)phenyl)-7-methoxy-6-((5-(2-nitro-1H-imidazol-1-yl)pentyl)oxy)quinazolin-4-amine] came in with a melting point of 90 to 91 °C. For the same molecule, in series [1], the IC50 turned out to be 4.6 nM. Also, the IC50 in series [2] was 1.3 nM. In addition, the inhibition at 10 µM on EGFR came to 99.2%. Also, on HER2, the inhibition at 10 µM was determined as 96.2%.

`COc1cc2ncnc(Nc3ccc(Oc4cccc(C(F)(F)F)c4)c(Cl)c3)c2cc1OCCCCCCn1ccnc1[N+](=O)[O-]` [Compound 9h, N-(3-Chloro-4-(3-(trifluoromethyl)phenoxy)phenyl)-7-methoxy-6-((6-(2-nitro-1H-imidazol-1-yl)hexyl)oxy)quinazolin-4-amine] yielded a melting point of 84 to 85 °C. For the same molecule, in series [1], the IC50 was found to be 5.6 nM. In addition, in series [2], the IC50 was determined as 1.1 nM. The inhibition at 10 µM at EGFR was 96.8%. In addition, the inhibition at 10 µM on HER2 was 97%.

By IC50 is commonly meant the concentration that inhibits the measured activity by half. What is called melting point is the temperature, or range, at which the solid turns liquid. A word on the inhibition: it is how much of the control response was suppressed.
